Measured values taken from US7563774B2, “Combination of FBPase inhibitors and antidiabetic agents useful for the treatment of diabetes” (Metabasis Therapeutics, Inc., priority 2000, dated 2009).

How the values were obtained:
[1] = tested on: gluconeogenesis in rat hepatocytes; test: Inhibition of gluconeogenesis in rat hepatocytes (Example C); type: cell-based; details: Hepatocyte, glucose production from lactate/pyruvate, 1 hour
rat hepatocytes = test: Glucose production and fructose-1,6-bisphosphate levels in rat hepatocytes (Example D); type: cell-based
Description: Hepatocytes were prepared from fed Sprague-Dawley rats (250-300 g) according to the procedure of Berry and Friend (Berry, M. N., Friend, D. S., 1969, J. Cell. Biol. 43, 506-520) as modified by Groen (Groen, A. K., Sips, H. J., Vervoom, R. C., Tager, J. M., 1982, Eur. J. Biochem. 122, 87-93). Hepatocytes (75 mg wet weight/mL) were incubated in 1 mL Krebs-bicarbonate buffer containing 10 mM Lactate, 1 mM pyruvate, 1 mg/mL BSA, and test compound concentrations from 0 to 500 μM. Incubations were carried out in a 95% oxygen, 5% carbon dioxide atmosphere in closed, 50-mL Falcon tubes submerged in a rapidly shaking water bath (37° C.). After 1 hour, an aliquot (0.25 mL) was removed, transferred to an Eppendorf tube and centrifuged. 50 μL of supernatant was then assayed for glucose content using a Sigma Glucose Oxidase kit as per the manufacturer's instructions.
Rat hepatocytes were isolated and incubated as described in Example C. Cell extracts, were analyzed for glucose content as described in Example C, and also for fructose 1,6-bisphosphate. Fructose 1,6-bisphosphate was assayed spectrophotometrically by coupling its enzymatic conversion to glycerol 3-phosphate to the oxidation of NADH, which was monitored at 340 nm. Reaction mixtures (1 mL) consisted of 200 mM Tris-HCl, pH 7.4, 0.3 mM NADH, 2 units/mL glycerol 3-phosphate dehydrogenase, 2 units/ml triosephosphate isomerase, and 50-100 μL cell extract. After a 30 minute preincubation at 37° C., 1 unit/ml of aldolase was added and the change in absorbance measured until a stable value was obtained. 2 moles of NADH are oxidized in this reaction per mole of fructose 1,6-bisphosphate present in the cell extract.

Sprague-Dawley rats [2] = test: Drug metabolite levels, blood glucose and hepatic fructose 1,6-bisphosphate after Compound A p.o. in rats (Example E); type: in vivo, rat
Description: Compound A was administered by oral gavage to freely-feeding Sprague Dawley rats (250-300 g). The compound was prepared as a suspension in carboxymethylcellulose, and administered at a dose of 250 mg/kg. For the determination of liver metabolites, rats were serially sacrificed over the course of 24 hours after drug administration. Livers were freeze-clamped, homogenized in perchloric acid, neutralized, and then analyzed for Compound B by anion exchange HPLC.
For the determination of plasma metabolites, rats were instrumented with carotid catheters prior to oral dosing. Blood samples were withdrawn via the catheters at appropriate time points over the course of 8 hours post drug administration. Plasma was prepared from the blood samples by centrifugation, and plasma protein precipitated by the addition of methanol to 60%. Compound A metabolites were quantitated by reverse phase HPLC in the deproteinated plasma samples. A C18 column (1.4 cm×250 mm) was equilibrated with 10 mM sodium phosphate, pH 5.5 and eluted with a gradient from this buffer to acetonitrile. Detection was at 254 nm.
The effect of Compound A on blood glucose and hepatic fructose 1,6-bisphosphate levels was determined in 18-hour fasted Sprague-Dawley rats (250-300 g). Animals were dosed as described above. At appropriate time points post drug administration, rats were anesthetized with halothane and a liver biopsy (approx. 1 g) was taken, as well as a blood sample (2 mL) from the posterior vena cava. A heparin flushed syringe and needle was used for blood collection. The liver sample was immediately homogenized in ice-cold 10% perchloric acid (3 mL), centrifuged, and the supernatant neutralized with ⅓ rd volume of 3 M KOH/[…]. Following centrifugation and filtration, the neutralized extract was analyzed for fructose 1,6-bisphosphate content as described for isolated hepatocytes in Example C. Blood glucose was measured by means of a Hemocue analyzer (Hemocue Inc, Mission Viejo, Calif.).

Sprague-Dawley rats [3] = test: Glucose lowering, hepatic and plasma drug levels after intraperitoneal dosing of normal fasted rats (Example F); type: in vivo, rat; details: 1 hour post injection
Description: Sprague-Dawley rats (250-300 g) were fasted for 18 hours and then dosed intraperitoneally either with saline or FBPase inhibitor. The vehicle used for drug administration was 10 mM bicarbonate. One hour post injection, rats were anesthetized with halothane, and liver and blood samples were taken and processed as described in Example E. The neutralized liver extracts were analyzed for FBPase inhibitor content by HPLC. A reverse phase YMC ODS AQ column (250×4.6 […]) was used and eluted with a gradient from 10 mM sodium phosphate pH 5.5 to 75% acetonitrile. Absorbance was monitored at 310 nm. Glucose was measured in the blood sample as described in Example C. Plasma was prepared by centrifugation and extracted by addition of methanol to 60% (v/v). The methanolic extract was clarified by centrifugation and filtration and then analyzed by HPLC as described above.

[4] = single 250 mg/kg dose p.o., 18-hour fasted rats

liver metabolites (Sprague-Dawley rats [2]; Compound A 250 mg/kg p.o., over 24 hours) | Liver conc. (Sprague-Dawley rats [3]) [nmol/g] | Structure (SMILES) | IC50 [1] [µM] | intracellular fructose 1,6-bisphosphate (rat hepatocytes) | IC50 (rat hepatocytes; Hepatocyte, read-out: IC50, inhibition of glucose production) [µM] | plasma metabolites (Sprague-Dawley rats [2]; Compound A 250 mg/kg p.o., over 8 hours) | duration of blood glucose lowering (Sprague-Dawley rats [2]; [4]) | hepatic fructose-1,6-bisphosphate levels (Sprague-Dawley rats [2]; [4])
efficiently converted to Compound B | – | CC(=O)OC[C@H]1O[C@@H](n2cnc(C(N)=O)c2Br)[C@H](OC(C)=O)[C@@H]1OC(C)=O [Compound A] | 50 | dose-dependent elevation | 50 | rapidly deacetylated at all three positions | approximately 8 hours | elevation of hepatic fructose-1,6-bisphosphate levels
– | 38.4 | CCc1cc(F)c(N)c2nc(-c3ccc(P(=O)(O)O)o3)n(CC(C)C)c12 [Compound E] | – | dose-dependent elevation | – | – | – | –
